This passage reports IC50 results from US20140206681A1, “BTK INHIBITORS” (priority 2013, published 2014).

The target in assay [1] is T1, BTK enzyme (recombinant full-length BTK, hBTK) (Homo sapiens, UniProt Q06187).
T1 construct: recombinant protein from baculovirus-transfected Sf9 cells: full-length BTK, 6HIS-tag cleaved; 6HIS (cleaved yes); made in house; host or cells: baculovirus-transfected Sf9 cells
Nature of the assay: BTK enzyme activity assay, LANCE TR-FRET. The assay is classed as biochemical. Particulars: 50 pM hBTK, 2 μM biotin-A5-peptide, 25 μM ATP; 60 min compound & enzyme incubation; read-out: IC50 BTK activity value. In general terms: In TR-FRET formats the signal depends on donor and acceptor labels being close together.

Assay [2] concerns HeLa cells. The assay can be described thus: [3H]Adenosine uptake functional cellular assay. Conditions: accumulation of [3H]adenosine into HeLa cells, compound range 10 μM to […], read-out: Adenosine uptake inhibition IC50. The assay is classed as cell-based. Here is the method: Compounds are also screened in an adenosine uptake functional cellular assay using the protocol described below. The adenosine uptake inhibition assay may be used to identify compounds with the potential for a negative cardiovascular side effect.
Adenosine uptake activity was determined by monitoring the accumulation of tritiated adenosine into HeLa cells (ATCC catalog # CCL-2) using a PMT-based radiometric detection instrument. […] These cells were incubated overnight at 37° C. in a humidified atmosphere with 5% (v/v) CO2. After this time the growth medium was removed and replaced with 40 μL assay medium comprising: Hanks balanced salts solution (HBSS; Thermo Fisher Catalog # SH30268.01)+5% (v/v) FBS. […] 40 μL of compound in the assay medium was dispensed into individual wells of the Cytostar-T plates and the plates were incubated for 30 minutes under ambient laboratory conditions. Following this incubation, 20 μL of 500 nM [^3H]adenosine (American Radiolabeled Chemicals Inc. Catalog # ART0287) was added in the assay medium and incubated for a further 60 minutes under ambient laboratory conditions. The amount of radiolabel accumulation was then determined using a Perkin Elmer Topcount NXT microplate reader. In brief, HeLa cells adhere to the bottom of the Cytostar-T plate, uptake of [^3H]adenosine into these cells brings the radiolabel into sufficient proximity to excite the scintillant in the base of the plates. These events are captured by single PMT, time-resolved coincidence counting. IC50 values were determined by 4 parameter robust fit of counts per second values vs. (Log10) compound concentrations.

Read-outs that look alike come from different tables or passages of the source.

T1 sequence (Q06187 whole entry): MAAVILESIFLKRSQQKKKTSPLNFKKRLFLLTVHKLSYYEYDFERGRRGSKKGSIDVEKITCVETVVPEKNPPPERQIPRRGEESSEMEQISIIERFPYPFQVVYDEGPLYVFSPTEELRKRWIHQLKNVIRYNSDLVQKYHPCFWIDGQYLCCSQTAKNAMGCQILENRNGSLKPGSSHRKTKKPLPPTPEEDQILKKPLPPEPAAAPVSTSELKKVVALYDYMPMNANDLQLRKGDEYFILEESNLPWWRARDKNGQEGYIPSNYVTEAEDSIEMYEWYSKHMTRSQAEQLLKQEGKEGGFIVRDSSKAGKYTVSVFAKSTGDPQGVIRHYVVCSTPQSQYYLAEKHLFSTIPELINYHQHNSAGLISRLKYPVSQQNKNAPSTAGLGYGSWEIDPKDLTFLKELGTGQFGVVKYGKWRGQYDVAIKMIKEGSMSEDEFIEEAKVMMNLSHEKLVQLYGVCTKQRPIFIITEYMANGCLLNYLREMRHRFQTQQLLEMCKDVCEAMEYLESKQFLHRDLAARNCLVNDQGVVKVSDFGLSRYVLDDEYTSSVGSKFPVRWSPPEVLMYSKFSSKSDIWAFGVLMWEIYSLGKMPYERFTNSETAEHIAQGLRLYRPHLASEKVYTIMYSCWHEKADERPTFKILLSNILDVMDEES

Turning to “4-(8-amino-3-((6R,8aS)-3-oxooctahydroindolizin-6-yl)imidazo[1,5-a]pyrazin-1-yl)-3-(2-methoxyethoxy)-N-(4-(trifluoromethyl)pyridin-2-yl)benzamide [Example 199]”, the IC50 was determined as 1.9 nM in assay [1] and 7090 nM in assay [2].
As for `CC1CC(=O)N2C[C@H](c3nc(-c4ccc(C(=O)Nc5cc(C(F)(F)F)ccn5)cc4)c4c(N)nccn34)CC[C@H]12` (stereo in doubt) [Example 63, 4-{8-amino-3-[(1S,6R,8aR)-1-methyl-3-oxooctahydroindolizin-6-yl]imidazo[1,5-a]pyrazin-1-yl}-N-[4-(trifluoromethyl)pyridin-2-yl]benzamide], the IC50 turned out to be 0.058 nM in assay [1] and 71.7 nM in assay [2] (Homo sapiens, HeLa).
`CC1CC(=O)N2C[C@H](c3nc(-c4ccc(C(=O)Nc5cc(C(F)(F)F)ccn5)cc4)c4c(N)nccn34)CC[C@@H]12` (stereo in doubt) [Example 65, 4-{8-amino-3-[(1R,6R,8aS)-1-methyl-3-oxooctahydroindolizin-6-yl]imidazo[1,5-a]pyrazin-1-yl}-N-[4-(trifluoromethyl)pyridin-2-yl]benzamide]: the IC50 in assay [1] stood at 0.085 nM; in assay [2] (Homo sapiens, HeLa), 132 nM.
As to `CN1CC[C@@H]2CC[C@@H](c3nc(-c4ccc(C(=O)Nc5cc(C(F)(F)F)ccn5)cc4)c4c(N)nccn34)CN2C1=O` [Example 83, 4-(8-amino-3-((4aS,7R)-2-methyl-1-oxooctahydro-1H-pyrido[1,2-c]pyrimidin-7-yl)imidazo[1,5-a]pyrazin-1-yl)-N-(4-(trifluoromethyl)pyridin-2-yl)benzamide], the IC50 in assay [2] (Homo sapiens, HeLa) came out at 124 nM.
On the same count and under the same terms, with `CN1CC[C@H]2CC[C@H](c3nc(-c4ccc(C(=O)Nc5cc(C(F)(F)F)ccn5)cc4)c4c(N)nccn34)CN2C1=O` [Example 84, 4-(8-amino-3-((4aR,7S)-2-methyl-1-oxooctahydro-1H-pyrido[1,2-c]pyrimidin-7-yl)imidazo[1,5-a]pyrazin-1-yl)-N-(4-(trifluoromethyl)pyridin-2-yl)benzamide] the figure was 155 nM; with `COc1cc(C(=O)Nc2cc(C(F)(F)F)ccn2)ccc1-c1nc([C@@H]2CC[C@H]3CCC(=O)N3C2)n2ccnc(N)c12` [Example 88, 4-(8-amino-3-((6R,8aS)-3-oxooctahydroindolizin-6-yl)imidazo[1,5-a]pyrazin-1-yl)-3-methoxy-N-(4-(trifluoromethyl)pyridin-2-yl)benzamide], 699 nM.
For `CC1(C)C[C@@H]2CC[C@@H](c3nc(-c4ccc(C(=O)Nc5cc(C(F)(F)F)ccn5)cc4)c4c(N)nccn34)CN2C1=O` [Example 95, 4-{8-amino-3-[(6R,8aS)-2,2-dimethyl-3-oxooctahydroindolizin-6-yl]imidazo[1,5-a]pyrazin-1-yl}-N-[4-(trifluoromethyl)pyridin-2-yl]benzamide], the IC50 in assay [1] was 11.4 nM.
Still for that read-out and setting: with `CCOc1cc(C(=O)Nc2cc(C(F)(F)F)ccn2)ccc1-c1nc([C@@H]2CC[C@H]3CC(C)(C)C(=O)N3C2)n2ccnc(N)c12` [Example 113, 4-{8-amino-3-[(6R,8aS)-2,2-dimethyl-3-oxooctahydroindolizin-6-yl]imidazo[1,5-a]pyrazin-1-yl}-3-ethoxy-N-[4-(trifluoromethyl)pyridin-2-yl]benzamide] the figure was 0.54 nM; with `Cc1c(C(F)(F)F)ccnc1NC(=O)c1ccc(-c2nc([C@@H]3CC[C@H]4CCC(=O)N4C3)n3ccnc(N)c23)cc1` [Example 122, 4-{8-amino-3-[(6R,8aS)-3-oxooctahydroindolizin-6-yl]imidazo[1,5-a]pyrazin-1-yl}-N-[3-methyl-4-(trifluoromethyl)pyridin-2-yl]benzamide], 12.4 nM.
The same measure, in the same setting: with `Nc1nccn2c([C@@H]3CC[C@H]4CCC(=O)N4C3)nc(-c3ccc(C(=O)Nc4cc(C(F)(F)F)cc(C5CCC5)n4)cc3)c12` [Example 126, 4-{8-amino-3-[(6R,8aS)-3-oxooctahydroindolizin-6-yl]limidazo[1,5-a]pyrazin-1-yl}-N-[6-cyclobutyl-4-(trifluoromethyl)pyridin-2-yl]benzamide] the figure was 766 nM; with `CCOc1cc(C(=O)Nc2cc(C(F)(F)F)ccn2)c(F)cc1-c1nc([C@@H]2CC[C@H]3CCC(=O)N3C2)n2c(Cl)cnc(N)c12` [Example 133, 4-{8-amino-5-chloro-3-[(6R,8aS)-3-oxooctahydroindolizin-6-yl]imidazo[1,5-a]pyrazin-1-yl}-5-ethoxy-2-fluoro-N-[4-(trifluoromethyl)pyridin-2-yl]benzamide], 0.55 nM; with `COc1cc(C(=O)Nc2cc(C(F)(F)F)ccn2)ccc1-c1nc([C@@H]2CC[C@H]3CCC(=O)N3C2)n2c(Cl)cnc(N)c12` [Example 143, 4-{8-amino-5-chloro-3-[(6R,8aS)-3-oxooctahydroindolizin-6-yl]imidazo[1,5-a]pyrazin-1-yl}-3-methoxy-N-[4-(trifluoromethyl)pyridin-2-yl]benzamide], 0.22 nM.
The same measure, in the same setting: with `Nc1ncc(Cl)n2c([C@@H]3CC[C@H]4CCC(=O)N4C3)nc(-c3ccc(C(=O)Nc4cc(C(F)(F)F)ccn4)cc3OC3CC3)c12` [Example 144, 4-{8-amino-5-chloro-3-[(6R,8aS)-3-oxooctahydroindolizin-6-yl]imidazo[1,5-a]pyrazin-1-yl}-3-(cyclopropyloxy)-N-[4-(trifluoromethyl)pyridin-2-yl]benzamide] the figure was 0.5 nM; with `Cc1cnc(NC(=O)c2ccc(-c3nc([C@@H]4CC[C@H]5CCC(=O)N5C4)n4c(Cl)cnc(N)c34)cc2)s1` [Example 154, 4-{8-amino-5-chloro-3-[(6R,8aS)-3-oxooctahydroindolizin-6-yl]imidazo[1,5-a]pyrazin-1-yl}-N-(5-methyl-1,3-thiazol-2-yl)benzamide], 0.81 nM.
As for `Cn1nc(NC(=O)c2ccc(-c3nc([C@@H]4CC[C@H]5CCC(=O)N5C4)n4ccnc(N)c34)cc2)cc1C(F)(F)F` [Example 171, 4-{8-amino-3-[(6R,8aS)-3-oxooctahydroindolizin-6-yl]imidazo[1,5-a]pyrazin-1-yl}-N-[1-methyl-5-(trifluoromethyl)-1H-pyrazol-3-yl]benzamide], in assay [1], the IC50 was 0.41 nM.
Take `Nc1nccn2c([C@@H]3CC[C@H]4CCC(=O)N4C3)nc(-c3ccc(C(=O)Nc4ncc[nH]4)cc3)c12` [Example 172, 4-{8-amino-3-[(6R,8aS)-3-oxooctahydroindolizin-6-yl]imidazo[1,5-a]pyrazin-1-yl}-N-1H-imidazol-2-ylbenzamide]: the IC50 in assay [1] was 50.7 nM.
Still for that read-out and setting: with `Nc1nccn2c([C@@H]3CC[C@H]4CCC(=O)N4C3)nc(-c3ccc(C(=O)Nc4cc(C(F)(F)F)on4)cc3)c12` [Example 173, 4-{8-amino-3-[(6R,8aS)-3-oxooctahydroindolizin-6-yl]imidazo[1,5-a]pyrazin-1-yl}-N-[5-(trifluoromethyl)isoxazol-3-yl]benzamide] the figure was 245 nM; with `Nc1nccn2c([C@@H]3CC[C@H]4CCC(=O)N4C3)nc(-c3ccc(C(=O)Nc4cc(C(F)(F)F)no4)cc3)c12` [Example 174, 4-{8-amino-3-[(6R,8aS)-3-oxooctahydroindolizin-6-yl]imidazo[1,5-a]pyrazin-1-yl}-N-[3-(trifluoromethyl)isoxazol-5-yl]benzamide], 241 nM; with `Cn1nc(NC(=O)c2ccc(-c3nc([C@@H]4CC[C@H]5CCC(=O)N5C4)n4ccnc(N)c34)cc2)cc1C1CC1` [Example 181, 4-{8-amino-3-[(6R,8aS)-3-oxooctahydroindolizin-6-yl]imidazo[1,5-a]pyrazin-1-yl}-N-(5-cyclopropyl-1-methyl-1H-pyrazol-3-yl)benzamide], 0.93 nM.
Still for that read-out and setting: with `CCOC(=O)c1oc(NC(=O)c2ccc(-c3nc([C@@H]4CC[C@H]5CCC(=O)N5C4)n4ccnc(N)c34)cc2)nc1C(F)(F)F` [Example 184, ethyl 2-{[(4-{8-amino-3-[(6R,8aS)-3-oxooctahydroindolizin-6-yl]imidazol[1,5-a]pyrazin-1-yl}phenyl)carbonyl]amino}-4-(trifluoromethyl)-1,3-oxazole-5-carboxylate] the figure was 155 nM.
Still for that read-out and setting: with `Cc1cc(C(=O)Nc2cc(C(F)(F)F)n(C)n2)ccc1-c1nc([C@@H]2CC[C@H]3CCC(=O)N3C2)n2ccnc(N)c12` [Example 186, 4-{8-amino-3-[(6R,8aS)-3-oxooctahydroindolizin-6-yl]imidazo[1,5-a]pyrazin-1-yl}-3-methyl-N-[1-methyl-5-(trifluoromethyl)-1H-pyrazol-3-yl]benzamide] the figure was 6.9 nM; with `CCOc1cc(C(=O)Nc2cc(C(F)(F)F)ccn2)ccc1-c1nc([C@@H]2CC[C@@H]3N(C2)C(=O)CC3(C)C)n2ccnc(N)c12` [Example 222, 4-(8-amino-3-((6R,8aS)-1,1-dimethyl-3-oxooctahydroindolizin-6-yl)imidazo[1,5-a]pyrazin-1-yl)-3-ethoxy-N-(4-(trifluoromethyl)pyridin-2-yl)benzamide], 0.2 nM.

By IC50 is commonly meant the concentration that gives 50% inhibition.
